Laboratory results: PubChem BioAssay (NCI)
Values joined by “and” are separate entries in the source; they are usually repeats but may differ in a detail not shown here. Equal entries are not always repeated.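 Method: 48-hour compound exposure of cells in 96-well plates, five concentrations, linear interpolation of endpoints. GI50 is the concentration that inhibits growth by half. TGI is the concentration that stops growth completely.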

Tests used:
Test in all cases: NCI tumour cell line growth inhibition, 48 h
SF-539 CNS = system: SF-539 CNS
SF-295 CNS = system: SF-295 CNS
SNB-75 CNS = system: SNB-75 CNS
OVCAR-4 ovarian = system: OVCAR-4 ovarian
MALME-3M melanoma = system: MALME-3M melanoma
M14 melanoma = system: M14 melanoma
NCI-H226 lung = system: NCI-H226 lung
HCT-116 colon = system: HCT-116 colon
K-562 leukemia = system: K-562 leukemia
UO-31 renal = system: UO-31 renal

Structure (SMILES) | TGI (SF-539 CNS) [µM] | TGI (SF-295 CNS) [µM] | TGI (SNB-75 CNS) [µM] | TGI (OVCAR-4 ovarian) [µM] | TGI (MALME-3M melanoma) [µM] | TGI (M14 melanoma) [µM] | GI50 (NCI-H226 lung) | TGI (NCI-H226 lung) [µM] | TGI (HCT-116 colon) [µM] | TGI (K-562 leukemia) [µM] | TGI (UO-31 renal) [µM] | GI50 (SF-539 CNS) [µM] | GI50 (SF-295 CNS) [µM] | GI50 (SNB-75 CNS) [µM] | GI50 (OVCAR-4 ovarian) [µM] | GI50 (MALME-3M melanoma) [µM] | GI50 (M14 melanoma) [µM] | GI50 (HCT-116 colon) [µM] | GI50 (K-562 leukemia) [µM] | GI50 (UO-31 renal) [µM]
C[C@@H](CN1CC(=O)NC(=O)C1)N1CC(=O)NC(=O)C1 | 1060 | 779 | 929 | 1110 | 1100 | 1160 | 90.7 µM | 485 | 750 | 2500 | 1060 |  |  |  |  |  |  |  |  | 
CCN(CC)c1ccc2c(c1)Oc1nc(N)c(C#N)c(N)c1C2Sc1ccc(OC)cc1 (stereo unspecified) | 3.04 | 3.6 | 2.89 | 3.02 | 3.45 | 3.33 | 1.82 µM | 3.55 | 3.12 | 8.07 | 2.85 | 1.64 | 1.93 | 1.51 | 1.57 | 1.82 | 1.77 | 1.65 | 2.61 | 1.52
CC(=O)C1C(=O)NC(=O)C1=O (stereo unspecified) | > 100 | > 100 | > 100 | > 100 | > 100 | > 100 |  | > 100 | > 100 | > 100 | > 100 |  |  |  |  |  |  |  |  | 
CC(C)CC(=O)Nc1n[nH]c2c1CN(C(=O)C1CCN(C)CC1)C2(C)C | 8.99 | > 10 | 4.14 | > 10 | > 10 | > 10 | 1.48 µM | > 10 | > 10 | > 10 | > 10 | 1.78 | 1.35 | 1.02 | 2.54 | 6.95 | 2.24 | 0.362 | 1.34 | > 10
COc1cc(Nc2ncc(F)c(Nc3ccc4c(n3)NC(=O)C(C)(C)O4)n2)cc(OC)c1OC | 9.38 | > 10 | > 10 | > 100 | > 100 | > 100 | 0.4 µM and 0.393 µM | > 100 | > 100 | > 100 | > 10 | 0.916 | 4.4 | 0.385 | > 100 | > 100 | > 100 | > 100 | > 100 | 0.679
